The nature of the first series: in vitro. Conditions: human, hela cells, % viability.
For `O=C(CC1CC1)N1CCCC2(CCN(C(=O)c3cc(F)c(F)cc3F)C2)C1` (centres unmarked) [CBK131531], the viability at 28.5 h, 10 µM is 96.7%.

Regarding `O=C(c1cc(F)c(F)cc1F)N1CCC2(CCCN(C(=O)c3cccc4[nH]ccc34)C2)C1` (centres unmarked) [CBK131544], the viability at 28.5 h, 10 µM stood at 97.3%.

For `O=C1NC(=O)C(CC(=O)N2CCCC3(CCN(C(=O)c4cc(F)c(F)cc4F)C3)C2)N1` (centres unmarked) [CBK131550], the viability at 28.5 h, 10 µM was determined as 96.2%. The same measure, in the same setting: in the case of `Cc1cn(CC(=O)N2CCCC3(CCN(C(=O)c4cc(F)c(F)cc4F)C3)C2)c(=O)[nH]c1=O` (centres unmarked) [CBK131561] it was 101%; in that of `COc1cc(C(=O)N2CCCC3(CCN(C(=O)c4cc(F)c(F)cc4F)C3)C2)cc(OC)c1OC` (centres unmarked) [CBK131563], 106%; in that of `O=C(Cc1c[nH]c2ccccc12)N1CCC2(CCCN(C(=O)c3cccc(C(F)(F)F)c3)C2)C1` (centres unmarked) [CBK131578], 97.2%.

As for `O=C(Cc1c[nH]c2ccccc12)N1CCC2(CCCN(C(=O)c3ccc(OC(F)(F)F)cc3)C2)C1` (centres unmarked) [CBK131579], the viability at 28.5 h, 10 µM was 97.8%. As for `O=C(Cc1c[nH]c2ccccc12)N1CCC2(CCCN(C(=O)c3cccnc3)C2)C1` (centres unmarked) [CBK131604], the viability at 28.5 h, 10 µM was found to be 103%. Turning to `O=C(Cc1ccc(Cl)c(Cl)c1)N1CCCC2(CCN(C(=O)c3ccoc3)C2)C1` (centres unmarked) [CBK131619], the viability at 28.5 h, 10 µM worked out at 87.4%. Take `O=C(/C=C/c1ccc2c(c1)OCO2)N1CCCC2(CCN(C(=O)c3ccoc3)C2)C1` (centres unmarked) [CBK131622]: the viability at 28.5 h, 10 µM was found to be 92.3%. In the case of `O=C(c1cc[nH]c1)N1CCCC2(CCN(C(=O)c3ccoc3)C2)C1` (centres unmarked) [CBK131629], the viability at 28.5 h, 10 µM was determined as 105%. On the same count and under the same terms, under `COc1cc(C(=O)N2CCCC3(CCN(C(=O)c4ccoc4)C3)C2)cc(OC)c1OC` (centres unmarked) [CBK131637] stands 114%; under `COc1ccc(C(=O)N2CCC3(CCCN(C(=O)c4ccco4)C3)C2)cc1OC` (centres unmarked) [CBK131647], 98.2%.

As for `COc1ccc(C(=O)N2CCC3(CCCN(C(=O)c4cscn4)C3)C2)cc1OC` (centres unmarked) [CBK131659], the viability at 28.5 h, 10 µM was 92%.

Take `COc1ccc(C(=O)N2CCC3(CCCN(C(=O)CCSC)C3)C2)cc1OC` (centres unmarked) [CBK131661]: the viability at 28.5 h, 10 µM came out at 111%. `COc1ccc(C(=O)N2CCC3(CCCN(C(=O)c4ccc5occc5c4)C3)C2)cc1OC` (centres unmarked) [CBK131665]: the viability at 28.5 h, 10 µM worked out at 97.6%. On the same count and under the same terms, in the case of `COc1ccc(C(=O)N2CCC3(CCCN(C(=O)c4cc(OC)c(OC)c(OC)c4)C3)C2)cc1OC` (centres unmarked) [CBK131667] it was 86.7%; in that of `COc1ccc(C(=O)N2CCC3(CCCN(C(=O)c4cccnc4)C3)C2)cc1OC` (centres unmarked) [CBK131668], 97.8%.

As to `COc1ccc(C(=O)N2CCC3(CCCN(C(=O)c4c(F)cccc4F)C3)C2)cc1OC` (centres unmarked) [CBK131669], the viability at 28.5 h, 10 µM came to 94.1%.

For `O=C(O)CSc1nnc(-c2ccco2)n1-c1ccccc1` [CBK131685], the viability at 28.5 h, 10 µM came to 85.9%.

`O=C(CCCOc1ccc(Cl)cc1Cl)Nc1ccc(O)cc1C(=O)O` [CBK131688]: the viability at 28.5 h, 10 µM is 104%. For the compound `O=C(O)COc1ccc(NC(=O)CSCc2ccc(Cl)cc2Cl)cc1` [CBK131700], the viability at 28.5 h, 10 µM is 89.2%. `Cc1cc(Cl)ccc1OCC(=O)Nc1ccc(O)cc1C(=O)O` [CBK131706]: the viability at 28.5 h, 10 µM was 86%. As for `COc1ccc(Nc2nc(-c3ccccc3)c(C)s2)c(OC)c1` [CBK131709], the viability at 28.5 h, 10 µM was found to be 106%.

As to `COC(=O)c1ccccc1NC(=O)CSCc1ccc(Cl)cc1Cl` [CBK131712], the viability at 28.5 h, 10 µM amounted to 86.2%. The same measure, in the same setting: under `O=C(c1ccc(OC(F)(F)F)cc1)N1CCC2(CCN(C(=O)c3ccoc3)C2)C1` (centres unmarked) [CBK131735] stands 92.8%; under `COc1ccc(C(=O)N2CCC3(CCN(C(=O)CCSC)C3)C2)cc1OC` (centres unmarked) [CBK131786], 105%. `COc1ccc(C(=O)N2CCC3(CCN(C(=O)c4ccc5[nH]c(=O)[nH]c5c4)C3)C2)cc1OC` (centres unmarked) [CBK131793]: the viability at 28.5 h, 10 µM came out at 100%.

With `COc1cc(-c2cc(-c3ccccc3)nc(SCC(=O)O)c2C#N)cc(OC)c1OC` [CBK131867], the viability at 28.5 h, 10 µM was determined as 99.3%. Turning to `Cc1cc(C)c2c(N)c(C(=O)O)sc2n1` [CBK131868], the viability at 28.5 h, 10 µM stood at 87.8%. On the same count and under the same terms, in the case of `CC(=O)c1sc2nc(C)cc(C)c2c1N` [CBK131882] it was 90.5%.

For `N#Cc1c(C(F)(F)F)cc(-c2ccc(Cl)cc2)nc1SCC(=O)O` [CBK131885], the viability at 28.5 h, 10 µM amounted to 97.5%. `CC(=O)c1cccc(-n2c(CCC(=O)O)ccc2-c2ccc(Br)cc2)c1` [CBK131888]: the viability at 28.5 h, 10 µM stood at 98.2%.

As to `NS(=O)(=O)c1ccc(Nc2nc(-c3ccccc3)c(CC(=O)O)s2)cc1` [CBK131899], the viability at 28.5 h, 10 µM was determined as 91.6%. On to `Cc1nc(Oc2ccccc2)c2c3c(sc2n1)CCCC3` [CBK131919], for which the viability at 28.5 h, 10 µM turned out to be 101%.

As for `Cc1nc(NCCO)c2c3c(sc2n1)CCCC3` [CBK131920], the viability at 28.5 h, 10 µM was 90.1%.

As to `O=C(CSCc1ccc(Cl)cc1Cl)Nc1nccs1` [CBK131921], the viability at 28.5 h, 10 µM was determined as 103%. On to `O=C(Cc1ccc(F)cc1F)N1CCC(Sc2ccc(-c3ccccc3)cc2)CC1` [CBK131950], for which the viability at 28.5 h, 10 µM came out at 105%. For the compound `O=C(c1cc(F)c(F)cc1F)N1CCC2(CCCN(Cc3ccc4ccccc4c3)C2)C1` (centres unmarked) [CBK131998], the viability at 28.5 h, 10 µM is 97.8%.

In the case of `O=C(c1cc(F)c(F)cc1F)N1CCC2(CCCN(C/C=C/c3ccccc3)C2)C1` (centres unmarked) [CBK132001], the viability at 28.5 h, 10 µM amounted to 107%. On to `CN(C)CCCN1CCCC2(CCN(C(=O)c3cc(F)c(F)cc3F)C2)C1` (centres unmarked) [CBK132005], for which the viability at 28.5 h, 10 µM came out at 96.5%. `O=C(CN1CCCC2(CCN(C(=O)c3cc(F)c(F)cc3F)C2)C1)Nc1ccc(F)c(Cl)c1` (centres unmarked) [CBK132008]: the viability at 28.5 h, 10 µM was determined as 96.9%. Regarding `O=C(c1cc(F)c(F)cc1F)N1CCC2(CCCN(Cc3cc(=O)[nH]c(=O)[nH]3)C2)C1` (centres unmarked) [CBK132010], the viability at 28.5 h, 10 µM amounted to 101%. For `O=C(c1cc(F)c(F)cc1F)N1CCC2(CCCN(CCN3CCOCC3)C2)C1` (centres unmarked) [CBK132015], the viability at 28.5 h, 10 µM was 82.8%. On the same count and under the same terms, in the case of `CCC1(CC)OC(NC(C)c2ccccc2F)=NC1=O` (centres unmarked) [CBK132018] it was 87.1%; in that of `O=C(CN1CCCC2(CCN(C(=O)Cc3c[nH]c4ccccc34)C2)C1)Nc1ccc(F)c(Cl)c1` (centres unmarked) [CBK132047], 108%; in that of `O=C(Cc1c[nH]c2ccccc12)N1CCC2(CCCN(Cc3cc(=O)[nH]c(=O)[nH]3)C2)C1` (centres unmarked) [CBK132049], 102%.

With `Cc1ccc2cc(CN(Cc3ccc(N(C)C)cc3)C(=O)NC3CCCCC3)c(=O)[nH]c2c1C` [CBK132070], the viability at 28.5 h, 10 µM stood at 97.3%. On the same count and under the same terms, in the case of `COc1ccc2cc(CN(CCNC(=O)OC(C)(C)C)C(=O)NC3CCCCC3)c(=O)[nH]c2c1` [CBK132074] it was 101%; in that of `Cc1ccc2cc(CN(CCNC(=O)OC(C)(C)C)C(=O)NCc3ccccc3)c(=O)[nH]c2c1C` [CBK132097], 90.2%; in that of `O=C(c1cc(F)c(F)cc1F)N1CCC2(CCN(Cc3cccc(C(F)(F)F)c3)C2)C1` (centres unmarked) [CBK132130], 102%. Turning to `NC(=O)CN1CCC2(CCN(C(=O)c3cc(F)c(F)cc3F)C2)C1` (centres unmarked) [CBK132140], the viability at 28.5 h, 10 µM was found to be 86.6%.

Take `O=C(c1cc(F)c(F)cc1F)N1CCC2(CCN(Cc3cc(=O)[nH]c(=O)[nH]3)C2)C1` (centres unmarked) [CBK132141]: the viability at 28.5 h, 10 µM is 91.4%. `COc1ccc(C(=O)N2CCC3(CCN(Cc4ccc(OC(F)(F)F)cc4)C3)C2)cc1OC` (centres unmarked) [CBK132148]: the viability at 28.5 h, 10 µM turned out to be 89%.

Take `COc1ccc(C(=O)N2CCC3(CCN(Cc4cc(OC)c(OC)c(OC)c4)C3)C2)cc1OC` (centres unmarked) [CBK132149]: the viability at 28.5 h, 10 µM is 100%. As to `COc1ccc(C(=O)N2CCC3(CCN(Cc4ccc(Cl)c(Cl)c4)C3)C2)cc1OC` (centres unmarked) [CBK132150], the viability at 28.5 h, 10 µM worked out at 97.3%. Regarding `COc1ccc(C(=O)N2CCC3(CCN(Cc4c(F)cccc4F)C3)C2)cc1OC` (centres unmarked) [CBK132152], the viability at 28.5 h, 10 µM was 92.8%. Regarding `COc1ccc(C(=O)N2CCC3(CCN(CCCCC4NC(=O)NC4=O)C3)C2)cc1OC` (centres unmarked) [CBK132169], the viability at 28.5 h, 10 µM is 83%.

On to `CCOc1cc(C(O)c2nnc(-c3ccccc3)o2)ccc1OCC(C)C` (centres unmarked) [CBK132385], for which the viability at 28.5 h, 10 µM worked out at 89.1%. Take `N#Cc1ccc(-n2nc(-c3ccccc3)c3ccccc3c2=O)c([N+](=O)[O-])c1` [CBK132567]: the viability at 28.5 h, 10 µM is 96.6%.

Take `O=C(c1ccoc1)N1CCC2(CCCN(Cc3ccc4ccccc4c3)C2)C1` (centres unmarked) [CBK132811]: the viability at 28.5 h, 10 µM was 90.1%.

In the case of `NC(=O)CCN1CCCC2(CCN(C(=O)c3ccoc3)C2)C1` (centres unmarked) [CBK132816], the viability at 28.5 h, 10 µM stood at 96.9%. In the case of `O=C(c1ccoc1)N1CCC2(CCCN(CCCn3c(=O)[nH]c4ccccc43)C2)C1` (centres unmarked) [CBK132818], the viability at 28.5 h, 10 µM was 90.1%.

The same series, now with this note: human, hela cells, % viability, bulk resorufin, single well.
Regarding `CCOC(=O)N1CCC2(CC1)OCc1cc(C#N)ccc1O2` [CBK131678], the viability at 28.5 h, 10 µM came to 87%. As to `COc1ccc(OC(=O)Cc2ccccc2)cc1` [CBK131826], the viability at 28.5 h, 10 µM worked out at 117%. The same measure, in the same setting: under `CCOC(=O)C1(c2ccccc2)CCN(C(=O)Cc2ccsc2)CC1` [CBK132172] stands 93%.

As for `CCOC(=O)C1(c2ccccc2)CCN(C(=O)CCSC)CC1` [CBK132184], the viability at 28.5 h, 10 µM is 113%. For `CCOC(=O)C1(c2ccccc2)CCN(C(=O)c2cccc3[nH]ccc23)CC1` [CBK132193], the viability at 28.5 h, 10 µM amounted to 95.7%. Regarding `CCOC(=O)C1(c2ccccc2)CCN(C(=O)CCC(=O)O)CC1` [CBK132197], the viability at 28.5 h, 10 µM stood at 94.7%. Regarding `CCOC(=O)C1(c2ccccc2)CCN(C(=O)CCC(=O)OC)CC1` [CBK132198], the viability at 28.5 h, 10 µM was 79.8%. Regarding `CCOC(=O)C1(c2ccccc2)CCN(C(=O)c2ccc(S(N)(=O)=O)cc2)CC1` [CBK132200], the viability at 28.5 h, 10 µM was found to be 99.7%. Regarding `CCOC(=O)C1(c2ccccc2)CCN(C(=O)C(c2ccccc2)c2ccccc2)CC1` [CBK132202], the viability at 28.5 h, 10 µM is 100%. The same measure, in the same setting: in the case of `CCOC(=O)C1(c2ccccc2)CCN(C(=O)c2ccc3nc[nH]c3c2)CC1` [CBK132208] it was 103%. Still for that read-out and setting: in the case of `CCOC(=O)C1(c2ccccc2)CCN(C(=O)CCN2CCN(C)CC2)CC1` [CBK132211] it was 86.2%.

For the origin of these results see publication PMC12040169 (PLOS Biology, 2025).
